The nature of data set [1]: clinical. The following applies: human, in vivo, iv, t1/2.
Data set [2] is described as follows: clinical. The settings on record: human, in vivo, iv, CL.
The nature of data set [3]: clinical. The following applies: human, in vivo, iv.
The nature of data set [4]: clinical. The settings on record: human, in vivo, iv, Vdss.

The text below walks through data of ChEMBL document CHEMBL1614632, “Trend analysis of a database of intravenous pharmacokinetic parameters in humans for 670 drug compounds” (Drug Metab Dispos, 2008).

With `CC(C)[C@@H](CC[C@@H](C)[C@H]1CC[C@H]2[C@@H]3[C@H](O)C[C@H]4C[C@@H](NCCCNCCCCN)CC[C@]4(C)[C@H]3CC[C@]12C)OS(=O)(=O)O` [SQUALAMINE], the half-life in data set [1] was 9.5 h. For the same compound, the clearance in data set [2] is 1.2 mL/min/kg. In data set [3], this compound yielded an MRT of 3.2 h. For the same compound, the Vd in data set [4] is 0.23 L/kg.

On to `CNS(=O)(=O)CCc1ccc2[nH]cc(C3CCN(C)CC3)c2c1`, for which, in data set [1], the half-life was 6.6 h. For the same compound, the clearance in data set [2] is 6.6 mL/min/kg. The MRT in data set [3] was determined as 6.1 h. The compound further showed a volume of distribution (Vd) in data set [4] of 2.4 L/kg.

The compound `COc1c(N2CCNC(C)C2)c(F)cc2c(=O)c(C(=O)O)cn(C3CC3)c12` (stereo not given) [GATIFLOXACIN] gave a half-life in data set [1] of 10 h. Also, the clearance in data set [2] was 2.8 mL/min/kg. Moreover, the MRT in data set [3] was determined as 11 h. This compound also yielded a Vd in data set [4] of 1.7 L/kg.

`CC[C@@]1(O)C(=O)OCc2c1cc1n(c2=O)Cc2c-1nc1cc(F)c(C)c3c1c2[C@@H](N)CC3` [EXATECAN] gave a half-life in data set [1] of 6.7 h. Moreover, the clearance in data set [2] turned out to be 0.96 mL/min/kg. In data set [3], this compound registered an MRT of 7.6 h. The same compound showed a Vd in data set [4] of 0.44 L/kg.

In data set [1], `CC(C)[C@H]1CC[C@H](C(=O)N[C@H](Cc2ccccc2)C(=O)O)CC1` [NATEGLINIDE] had a half-life of 1.5 h. Besides, the clearance in data set [2] was 1.8 mL/min/kg. For the same compound, the MRT in data set [3] amounted to 1.4 h. Moreover, in data set [4], the Vd came out at 0.15 L/kg.

Compound `C[C@]12CC[C@@H]3c4ccc(OC(=O)N(CCCl)CCCl)cc4CC[C@H]3[C@@H]1CC[C@@H]2OP(=O)(O)O` [ESTRAMUSTINE PHOSPHATE] showed a half-life in data set [1] of 2.4 h. The same compound returned a clearance in data set [2] of 0.94 mL/min/kg. The compound also gave an MRT in data set [3] of 2.1 h. The Vd in data set [4] came to 0.12 L/kg.

Regarding `CCCNC(=O)NS(=O)(=O)c1ccc(Cl)cc1` [CHLORPROPAMIDE], the half-life in data set [1] was 46 h. In data set [2], this compound showed a clearance of 0.045 mL/min/kg. The compound also registered an MRT in data set [3] of 70 h. For the same compound, the Vd in data set [4] is 0.19 L/kg.

`NC1CCN(c2c(F)cc3c(=O)c(C(=O)O)cn(C4CC4)c3c2Cl)C1` (stereo not given) [CLINAFLOXACIN]: in data set [1], the half-life was 5.4 h. Also, the clearance in data set [2] turned out to be 4.7 mL/min/kg. Moreover, the MRT in data set [3] came to 6.7 h. In addition, in data set [4], the Vd was 1.9 L/kg.

The compound `CCC1=C[C@@H]2CN(C1)Cc1c([nH]c3ccccc13)[C@@](C(=O)OC)(c1cc3c(cc1OC)N(C)[C@H]1[C@@](O)(C(=O)OC)[C@H](OC(C)=O)[C@]4(CC)C=CCN5CC[C@]31[C@@H]54)C2` (stereo in doubt; form 1) [VINORELBINE] showed a half-life in data set [1] of 18 h. This compound showed a clearance in data set [2] of 12 mL/min/kg. Besides, in data set [3], the MRT amounted to 17 h. The compound also gave a Vd in data set [4] of 12 L/kg.

`c1ccc2c(c1)OCC(C1=NCCN1)O2` (stereo not given) [IDAZOXAN] showed a half-life in data set [1] of 4.2 h. This compound displayed a clearance in data set [2] of 10 mL/min/kg. In data set [3], the MRT was 5.5 h. This compound gave a Vd in data set [4] of 3.3 L/kg.

For `O=C1Cc2cc(CCN3CCN(c4nsc5ccccc45)CC3)c(Cl)cc2N1` [ZIPRASIDONE], the half-life in data set [1] was 3.1 h. Besides, the clearance in data set [2] is 5.1 mL/min/kg. Also, the MRT in data set [3] was 3.3 h. For the same compound, the Vd in data set [4] stood at 1 L/kg.

With `CCCc1nc2c(C)cc(-c3nc4ccccc4n3C)cc2n1Cc1ccc(-c2ccccc2C(=O)O)cc1`, the half-life in data set [1] is 20 h. Further, the clearance in data set [2] was 8.4 mL/min/kg. In addition, in data set [3], the MRT was 11 h. In data set [4], this compound returned a Vd of 5.3 L/kg.

The compound `O=C(O)C(Cl)Cl` [DICHLOROACETIC ACID] gave a half-life in data set [1] of 0.65 h. Also, in data set [2], the clearance came out at 5.3 mL/min/kg. Besides, the MRT in data set [3] was determined as 0.6 h. This compound displayed a Vd in data set [4] of 0.19 L/kg.

Take `Cn1cc[nH]c1=S` [METHIMAZOLE]: the half-life in data set [1] is 2.4 h. In data set [2], this compound yielded a clearance of 3.7 mL/min/kg. The compound further returned an MRT in data set [3] of 3.8 h. Moreover, the Vd in data set [4] came to 0.86 L/kg.

In the case of `Cc1cc(NC(=O)C2=C(O)c3ccccc3S(=O)(=O)N2C)no1` [ISOXICAM], the half-life in data set [1] is 33 h. Also, in data set [2], the clearance was found to be 0.07 mL/min/kg. In addition, the MRT in data set [3] stood at 44 h. Besides, the volume of distribution (Vd) in data set [4] stood at 0.19 L/kg.

One may read the half-life as the time in which the quantity being followed falls by half. Read a high half-life as slow loss. By clearance is commonly meant the rate of elimination divided by the concentration. What is called MRT is the average time that molecules of a dose stay in the body. As usually defined, the Vd is a proportionality between amount in the body and measured concentration, not a real space. Higher therefore signals wide distribution into tissue.
